Results on 16 compounds are retold here after patent publication US20240360178A1, “MACROCYCLIC IMMUNOMODULATORS” (Bristol-Myers Squibb Company, priority 2021, published 2024).

Positions of bridges follow the written chain, without caps; N, C: chain ends. Non-standard residues stand in square brackets, D forms with d. Residues, ends and D or L forms follow the SMILES beside them. Phe(3,4,5-F3) = N[C@@H](Cc1cc(F)c(F)c(F)c1)C(=O)O; Phe(4-CH2NH2) = NCc1ccc(C[C@H](N)C(=O)O)cc1; Bip = N[C@@H](Cc1ccc(-c2ccccc2)cc1)C(=O)O; Ala(cPent) = N[C@@H](CC1CCCC1)C(=O)O; Ala(cPr) = N[C@@H](CC1CC1)C(=O)O; NMeF = CN[C@@H](Cc1ccccc1)C(=O)O; NMeN = CN[C@@H](CC(N)=O)C(=O)O; hSer = N[C@@H](CCO)C(=O)O; NMeA = CN[C@@H](C)C(=O)O; Sar = CNCC(=O)O

T1 sequence (Q15116 25-288): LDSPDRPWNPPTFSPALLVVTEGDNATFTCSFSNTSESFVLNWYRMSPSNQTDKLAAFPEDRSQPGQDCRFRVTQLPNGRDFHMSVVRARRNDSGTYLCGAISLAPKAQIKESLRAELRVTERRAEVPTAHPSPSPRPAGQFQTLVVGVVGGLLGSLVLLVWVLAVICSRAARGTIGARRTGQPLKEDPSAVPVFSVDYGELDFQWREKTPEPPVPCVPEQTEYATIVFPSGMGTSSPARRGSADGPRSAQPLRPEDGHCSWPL

The experiment has as its target T1, human PD-1 (Jurkat-PD-1 cells) / PE-labeled human PD-L1-Ig (Homo sapiens, UniProt Q15116).
T1 construct: expressed in transfected cells; host or cells: Jurkat cell line over-expressing human PD-1
As to the kind of experiment: Jurkat-PD-1 Cell Binding High-Content Screening Assay (CBA); Jurkat hPD1-PDL1 assay. Conditions: Jurkat cell line over-expressing human PD-1; PE-labeled PD-L1-Ig 20 nM final; compound incubated 2 hours at 37° C.; read-out: Jurkat HPD1-PDL1 IC50. The method in brief:
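Read-out is high-content imaging of PE fluorescence on PD-1-over-expressing Jurkat cells. Cells are first exposed to compound for 2 hours at 37° C in serum-containing DMEM, after which PE-labeled PD-L1-Ig is added at 20 nM final.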
Turning to `CC(C)C[C@@H]1NC(=O)[C@H](Cc2c[nH]c3ccccc23)NC(=O)[C@H](CC(=O)O)NC(=O)[C@H](Cc2cc(F)c(F)c(F)c2)NC(=O)[C@H](Cc2ccccc2)NC(=O)CSC[C@@H](C(=O)N[C@@H](C)C(N)=O)NC(=O)[C@H](CO)NC(=O)[C@H](C(C)C)NC(=O)[C@H](CC(C)C)NC(=O)[C@H](CC(N)=O)NC(=O)CN(C)C(=O)[C@H](C)N(C)C(=O)[C@H](C(C)C)NC(=O)[C@H](Cc2ccc(-c3ccccc3)cc2)NC1=O` [Example 1146] ({CH2CO}-F[Phe(3,4,5-F3)]DWL[Bip]V[NMeA][Sar]NLVSCA-NH2; thioether N-14), the IC50 came out at 650 nM.

In the case of `CC(C)C[C@@H]1NC(=O)[C@H](CC(N)=O)NC(=O)CN(C)C(=O)[C@H](C)N(C)C(=O)[C@H](C(C)C)NC(=O)[C@H](Cc2ccc(-c3ccccc3)cc2)NC(=O)[C@H](CC2CCCC2)NC(=O)[C@H](Cc2c[nH]c3ccccc23)NC(=O)[C@H](CC(=O)O)NC(=O)[C@H](Cc2ccc(O)cc2)NC(=O)[C@H](Cc2ccccc2)NC(=O)CSC[C@@H](C(=O)N[C@@H](C)C(N)=O)NC(=O)[C@H](CO)NC(=O)[C@H](C(C)C)NC1=O` [Example 1147] ({CH2CO}-FYDW[Ala(cPent)][Bip]V[NMeA][Sar]NLVSCA-NH2; thioether N-14), the half-maximal inhibitory concentration (IC50) stood at 660 nM. With `CC(C)C[C@@H]1NC(=O)[C@H](Cc2c[nH]c3ccccc23)NC(=O)[C@H](CC(=O)O)NC(=O)[C@H](Cc2ccc(O)cc2)NC(=O)[C@H](Cc2ccccc2)NC(=O)CSC[C@@H](C(=O)NCC(N)=O)NC(=O)[C@H](CO)NC(=O)[C@H](C(C)C)NC(=O)[C@H](CC(C)C)NC(=O)[C@H](CC(N)=O)NC(=O)[C@H](CC(N)=O)N(C)C(=O)[C@H](C)N(C)C(=O)[C@H](C(C)C)NC(=O)[C@H](Cc2ccc(-c3ccccc3)cc2)NC1=O` [Example 1148] ({CH2CO}-FYDWL[Bip]V[NMeA][NMeN]NLVSCG-NH2; thioether N-14) the figure was 670 nM; with `CC(C)C[C@@H]1NC(=O)[C@H](CC(N)=O)NC(=O)CN(C)C(=O)[C@H](C)N(C)C(=O)[C@H](C(C)C)NC(=O)[C@H](Cc2ccc(-c3ccccc3)cc2)NC(=O)[C@H](C(C)C)NC(=O)[C@H](Cc2c[nH]c3ccccc23)NC(=O)[C@H](CC(=O)O)NC(=O)[C@H](Cc2ccc(O)cc2)NC(=O)[C@H](Cc2ccccc2)NC(=O)CSC[C@@H](C(=O)N[C@@H](C)C(N)=O)NC(=O)[C@H](CO)NC(=O)[C@H](C(C)C)NC1=O` [Example 1149] ({CH2CO}-FYDWV[Bip]V[NMeA][Sar]NLVSCA-NH2; thioether N-14), 690 nM. In the case of `CC(C)C[C@@H]1NC(=O)[C@H](Cc2c[nH]c3ccccc23)NC(=O)[C@H](CC(=O)O)NC(=O)[C@H](Cc2ccc(O)cc2)NC(=O)[C@H](Cc2cnc[nH]2)NC(=O)CSC[C@@H](C(=O)NCC(N)=O)NC(=O)[C@H](CO)NC(=O)[C@H](C(C)C)NC(=O)[C@H](CC(C)C)NC(=O)[C@H](CC(N)=O)NC(=O)CN(C)C(=O)[C@H](C)N(C)C(=O)[C@H](C(C)C)NC(=O)[C@H](Cc2ccc(-c3ccccc3)cc2)NC1=O` [Example 1150] ({CH2CO}-HYDWL[Bip]V[NMeA][Sar]NLVSCG-NH2; thioether N-14) it was 690 nM; in that of `CC(C)C[C@@H]1NC(=O)[C@H](Cc2c[nH]c3ccccc23)NC(=O)[C@H](CC(=O)O)NC(=O)[C@H](Cc2ccc(O)cc2)NC(=O)[C@H](Cc2ccccc2)NC(=O)CSC[C@@H](C(=O)N[C@H](C)C(N)=O)NC(=O)[C@H](CO)NC(=O)[C@H](C(C)C)NC(=O)[C@H](CC(C)C)NC(=O)[C@H](CC(N)=O)NC(=O)CN(C)C(=O)[C@H](C)N(C)C(=O)[C@H](C(C)C)NC(=O)[C@H](Cc2ccc(-c3ccccc3)cc2)NC1=O` [Example 1151] ({CH2CO}-FYDWL[Bip]V[NMeA][Sar]NLVSC[dA]-NH2; thioether N-14), 700 nM. As for `CC(C)C[C@@H]1NC(=O)[C@H](Cc2c[nH]c3ccccc23)NC(=O)[C@H](CC(=O)O)NC(=O)[C@H](Cc2ccc(O)cc2)NC(=O)[C@H](Cc2ccc(O)cc2)NC(=O)CSC[C@@H](C(=O)NCC(N)=O)NC(=O)[C@H](CO)NC(=O)[C@H](C(C)C)NC(=O)[C@H](CC(C)C)NC(=O)[C@H](CC(N)=O)NC(=O)CN(C)C(=O)[C@H](C)N(C)C(=O)[C@H](C(C)C)NC(=O)[C@H](Cc2ccc(-c3ccccc3)cc2)NC1=O` [Example 1152] ({CH2CO}-YYDWL[Bip]V[NMeA][Sar]NLVSCG-NH2; thioether N-14), the IC50 was 740 nM. In the case of `CC(C)C[C@@H]1NC(=O)[C@H](Cc2c[nH]c3ccccc23)NC(=O)[C@H](CC(=O)O)NC(=O)[C@H](Cc2cnc[nH]2)NC(=O)[C@H](Cc2ccccc2)NC(=O)CSC[C@@H](C(=O)NCC(N)=O)NC(=O)[C@H](CO)NC(=O)[C@H](C(C)C)NC(=O)[C@H](CC(C)C)NC(=O)[C@H](CC(N)=O)NC(=O)CN(C)C(=O)[C@H](C)N(C)C(=O)[C@H](C(C)C)NC(=O)[C@H](Cc2ccc(-c3ccccc3)cc2)NC1=O` [Example 1153] ({CH2CO}-FHDWL[Bip]V[NMeA][Sar]NLVSCG-NH2; thioether N-14), the IC50 was found to be 760 nM.

With `CC(C)C[C@@H]1NC(=O)[C@H](Cc2c[nH]c3ccccc23)NC(=O)[C@H](CC(=O)O)NC(=O)[C@H](Cc2ccc(O)cc2)NC(=O)[C@H](C(C)C)NC(=O)CSC[C@@H](C(=O)NCC(N)=O)NC(=O)[C@H](CO)NC(=O)[C@H](C(C)C)NC(=O)[C@H](CC(C)C)NC(=O)[C@H](CC(N)=O)NC(=O)CN(C)C(=O)[C@H](C)N(C)C(=O)[C@H](C(C)C)NC(=O)[C@H](Cc2ccc(-c3ccccc3)cc2)NC1=O` [Example 1154] ({CH2CO}-VYDWL[Bip]V[NMeA][Sar]NLVSCG-NH2; thioether N-14), the IC50 was found to be 790 nM. With `CC(C)C[C@@H]1NC(=O)[C@H](CC(N)=O)NC(=O)CN(C)C(=O)[C@H](C)N(C)C(=O)[C@H](C(C)C)NC(=O)[C@H](Cc2ccc(-c3ccccc3)cc2)NC(=O)[C@H](CC2CC2)NC(=O)[C@H](Cc2c[nH]c3ccccc23)NC(=O)[C@H](CC(=O)O)NC(=O)[C@H](Cc2ccc(O)cc2)NC(=O)[C@H](Cc2ccccc2)NC(=O)CSC[C@@H](C(=O)N[C@@H](C)C(N)=O)NC(=O)[C@H](CO)NC(=O)[C@H](C(C)C)NC1=O` [Example 1155] ({CH2CO}-FYDW[Ala(cPr)][Bip]V[NMeA][Sar]NLVSCA-NH2; thioether N-14) the figure was 810 nM. In the case of `CC(C)C[C@@H]1NC(=O)[C@H](CCCNC(=N)N)NC(=O)[C@H](Cc2ccccc2)N(C)C(=O)[C@H](C)N(C)C(=O)[C@H](CCCNC(=N)N)NC(=O)[C@H](Cc2ccc(-c3ccccc3)cc2)NC(=O)[C@H](C(C)C)NC(=O)[C@H](Cc2c[nH]c3ccccc23)NC(=O)[C@H](CC(=O)O)NC(=O)[C@H](Cc2ccc(O)cc2)NC(=O)[C@H](Cc2c[nH]c3ccccc23)NC(=O)CSC[C@@H](C(=O)NCC(N)=O)NC(=O)[C@H](CO)NC(=O)[C@H](C(C)C)NC1=O` [Example 1157] ({CH2CO}-WYDWV[Bip]R[NMeA][NMeF]RLVSCG-NH2; thioether N-14) it was 830 nM; in that of `CC(C)C[C@@H]1NC(=O)[C@H](C)NC(=O)CN(C)C(=O)[C@H](C)N(C)C(=O)[C@H](C(C)C)NC(=O)[C@H](Cc2ccc(-c3ccccc3)cc2)NC(=O)[C@H](CC(C)C)NC(=O)[C@H](Cc2c[nH]c3ccccc23)NC(=O)[C@H](CC(=O)O)NC(=O)[C@H](Cc2ccc(O)cc2)NC(=O)[C@H](Cc2ccccc2)NC(=O)CSC[C@@H](C(=O)N[C@@H](C)C(N)=O)NC(=O)[C@H](CO)NC(=O)[C@H](C(C)C)NC1=O` [Example 1158] ({CH2CO}-FYDWL[Bip]V[NMeA][Sar]ALVSCA-NH2; thioether N-14), 840 nM.

Turning to `CC(C)C[C@@H]1NC(=O)[C@H](Cc2c[nH]c3ccccc23)NC(=O)[C@H](CC(=O)O)NC(=O)[C@H](Cc2ccc(O)cc2)NC(=O)[C@H](Cc2ccccc2)NC(=O)CSC[C@@H](C(=O)N[C@@H](C)C(N)=O)NC(=O)[C@H](CCO)NC(=O)[C@H](C(C)C)NC(=O)[C@H](CC(C)C)NC(=O)[C@H](CC(N)=O)NC(=O)CN(C)C(=O)[C@H](C)N(C)C(=O)[C@H](C(C)C)NC(=O)[C@H](Cc2ccc(-c3ccccc3)cc2)NC1=O` [Example 1159] ({CH2CO}-FYDWL[Bip]V[NMeA][Sar]NLV[hSer]CA-NH2; thioether N-14), the IC50 came to 860 nM. As to `CC(C)C[C@@H]1NC(=O)[C@H](Cc2c[nH]c3ccccc23)NC(=O)[C@H](CC(=O)O)NC(=O)[C@H](Cc2ccc(O)cc2)NC(=O)[C@H](Cc2ccc(CN)cc2)NC(=O)CSC[C@@H](C(=O)NCC(N)=O)NC(=O)[C@H](CO)NC(=O)[C@H](C(C)C)NC(=O)[C@H](CC(C)C)NC(=O)[C@H](CC(N)=O)NC(=O)CN(C)C(=O)[C@H](C)N(C)C(=O)[C@H](C(C)C)NC(=O)[C@H](Cc2ccc(-c3ccccc3)cc2)NC1=O` [Example 1160] ({CH2CO}-[Phe(4-CH2NH2)]YDWL[Bip]V[NMeA][Sar]NLVSCG-NH2; thioether N-14), the IC50 amounted to 870 nM. In the case of `CC(C)C[C@@H]1NC(=O)[C@H](C)NC(=O)CN(C)C(=O)[C@H](C)N(C)C(=O)[C@H](CCC(=O)O)NC(=O)[C@H](Cc2ccc(-c3ccccc3)cc2)NC(=O)[C@H](CC(C)C)NC(=O)[C@H](Cc2c[nH]c3ccccc23)NC(=O)[C@H](CC(=O)O)NC(=O)[C@H](Cc2ccc(O)cc2)NC(=O)[C@H](Cc2ccccc2)NC(=O)CSC[C@@H](C(=O)N[C@@H](C)C(N)=O)NC(=O)[C@H](CO)NC(=O)[C@H](C(C)C)NC1=O` [Example 1164] ({CH2CO}-FYDWL[Bip]E[NMeA][Sar]ALVSCA-NH2; thioether N-14) it was 900 nM; in that of `CC(C)C[C@@H]1NC(=O)[C@H](Cc2c[nH]c3ccccc23)NC(=O)[C@H](CC(=O)O)NC(=O)[C@H](Cc2ccccc2)NC(=O)[C@H](Cc2ccccc2)NC(=O)CSC[C@@H](C(=O)N[C@@H](C)C(N)=O)NC(=O)[C@H](CO)NC(=O)[C@H](C(C)C)NC(=O)[C@H](CC(C)C)NC(=O)[C@H](CC(N)=O)NC(=O)CN(C)C(=O)[C@H](C)N(C)C(=O)[C@H](C(C)C)NC(=O)[C@H](Cc2ccc(-c3ccccc3)cc2)NC1=O` [Example 1165] ({CH2CO}-FFDWL[Bip]V[NMeA][Sar]NLVSCA-NH2; thioether N-14), 900 nM.
